Each structure is given as a SMILES string. pIC50: −log10 of the molar value. Structures can show the parent of a compound that is named as a salt.

For this assay, the target named is T1, human GPR14 (Homo sapiens, UniProt Q9UKP6).
T1 construct: expressed in transfected cells
T1 sequence (Q9UKP6 1-389): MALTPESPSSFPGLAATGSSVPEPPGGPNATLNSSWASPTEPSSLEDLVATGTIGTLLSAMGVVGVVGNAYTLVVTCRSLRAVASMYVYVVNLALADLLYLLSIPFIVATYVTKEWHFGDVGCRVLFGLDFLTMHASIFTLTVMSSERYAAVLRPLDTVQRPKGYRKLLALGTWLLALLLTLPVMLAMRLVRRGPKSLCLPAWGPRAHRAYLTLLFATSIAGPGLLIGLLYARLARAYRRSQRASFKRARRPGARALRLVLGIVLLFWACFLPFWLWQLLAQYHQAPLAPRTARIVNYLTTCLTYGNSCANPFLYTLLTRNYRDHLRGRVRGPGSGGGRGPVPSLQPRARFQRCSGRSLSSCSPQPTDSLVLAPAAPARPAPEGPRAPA
The assay is described as follows: Inhibition of binding of [125I]-labeled human urotensin II to human GPR14-expressing CHO cell membrane fraction. Conditions: 25° C., 3 hours, read-out: Inhibitory concentration (concentration at which the compound showed 50% inhibition of human GPR14 binding activity). The protocol: To 1×10^8 CHO/GPR14 cells were added 10 ml of homogenate buffer (10 mM NaHCO3, 5 mM EDTA, 0.5 mM PMSF, 1 μg/ml pepstatin, 4 μg/ml E64, 20 μg/ml leupeptin), and disrupted using Polytron (12,000 rpm, 1 minute). Cell debris solution was centrifuged at 1,000 g for 15 minutes to obtain a supernatant. The supernatant was then […] (in Beckman type 30 rotor, 30,000 rpm, 1 hour), and the resultant precipitant was collected as human GPR14-expressing CHO cell fraction.
Isotope-labeled human urotensin II to be used in experiments for testing inhibition of binding was prepared as described below. 5 μg of human urotensin II (available from Peptide Institute, Inc.) was dissolved in 25 μl of 0.4M sodium acetate (pH 5.6). To the solution was added 200 ng of lactoperoxidase (Wako Pure Chemical Industries, Ltd.) followed by 1 mCi [^125I]-sodium iodide (Amersham Pharmacia Biotech) and 200 ng of hydrogen peroxide (10 μl). The solution was left to stand at room temperature for 10 minutes, another 200 ng of hydrogen peroxide (10 μl) was added thereto and then the solution was left to stand for 10 minutes. The mixture was then purified by HPLC using TSKgel ODS-80Ts column (4.6 mm×25 cm, Toso Co., Ltd.) to obtain [^125I]-labeled human urotensin II.
Experiment for Testing the Ability of Test compound to Inhibit Binding of Urotensin II to GPR14 Using Human GPR14-Expressing Cell Fraction and Isotope-Labeled Urotensin II
Human GPR14-expressing CHO cell fraction was diluted in a membrane diluting buffer (20 mM phosphate buffer (pH7.3), 150 mM NaCl, 5 mM MgCl2, […], 0.05% CHAPS, 0.5 mM PMSF, 0.1 μg/ml Pepstatin, 20 μg/ml Leupeptin, 4 μg/ml E-64) to prepare a solution of cell membrane fraction (protein concentration: 3 μg/ml) for assay. […] Next, the filter was washed three times with membrane diluting buffer (0.2 ml), added with 20 μl of Microscinti 20 (Packard), and determined for radioactivity in Topcount (Packard). Specific-binding is calculated by subtracting non-specific binding from the total binding. […]
On to `O=C(CCCN1CCN(C(c2ccc(F)cc2)c2ccc(F)cc2)CC1)c1ccc2c(c1)CCNCC2` [Example 6, 4-{4-[bis(4-fluorophenyl)methyl]-1-piperazinyl}-1-(2,3,4,5-tetrahydro-1H-3-benzazepin-7-yl)-1-butanone trihydrochloride], for which the pIC50 is 8.49.

Consider `O=S(=O)(NCCN1CCN(Cc2ccccc2)CC1)c1ccc2c(c1)CCNCC2` [Example 75, N-[2-(4-benzyl-1-piperazinyl)ethyl]-2,3,4,5-tetrahydro-1H-3-benzazepine-7-sulfonamide trihydrochloride], for which the pIC50 was 8.07.

Turning to `O=C(NCCN1CCN(C(c2ccc(F)cc2)c2ccc(F)cc2)CC1)c1ccc2c(c1)CCNCC2` [Example 84, N-(2-{4-[bis(4-fluorophenyl)methyl]piperazin-1-yl}ethyl)-2,3,4,5-tetrahydro-1H-3-benzazepine-7-carboxamide trihydrochloride], the pIC50 is 8.77.

For the origin of these results see patent US20040063699A1, “Gpr14 antagonist” (priority 2000, published 2004).
